# Test results as given in PubChem BioAssay AID1259407 (Chemical Carcinogenesis Research Information System (CCRIS), 2018).
# Calls of active or inactive are those of the source. The rule behind the calls is not given here.
# System: CCRIS mutagenicity, Ames/micronucleus/aberration tests
# Assay: CCRIS mutagenicity studies
# [1] = Test System: AMES SALMONELLA TYPHIMURIUM, Strain/Indicator: TA98, Metabolic Activation: NONE, Method: STANDARD PLATE
# [2] = Test System: AMES SALMONELLA TYPHIMURIUM, Strain/Indicator: TA100, Metabolic Activation: NONE, Method: STANDARD PLATE
smiles,measurement,setting,value
CCCCCCC(=O)O,mutagenic call,"Test System: AMES SALMONELLA TYPHIMURIUM, Strain/Indicator: TA97, Metabolic Activation: HAMSTER, LIVER, S-9, AROCLOR 1254 (10%), Method: PREINCUBATION",inactive; negative
same,mutagenic call,"Test System: AMES SALMONELLA TYPHIMURIUM, Strain/Indicator: TA97, Metabolic Activation: HAMSTER, LIVER, S-9, AROCLOR 1254 (30%), Method: PREINCUBATION",inactive; negative
same,mutagenic call,"Test System: AMES SALMONELLA TYPHIMURIUM, Strain/Indicator: TA97, Metabolic Activation: NONE, Method: PREINCUBATION",inactive; negative
same,mutagenic call,"Test System: AMES SALMONELLA TYPHIMURIUM, Strain/Indicator: TA97, Metabolic Activation: RAT, LIVER, S-9, AROCLOR 1254 (10%), Method: PREINCUBATION",inactive; negative
same,mutagenic call,"Test System: AMES SALMONELLA TYPHIMURIUM, Strain/Indicator: TA97, Metabolic Activation: RAT, LIVER, S-9, AROCLOR 1254 (30%), Method: PREINCUBATION",inactive; negative
same,mutagenic call,"Test System: AMES SALMONELLA TYPHIMURIUM, Strain/Indicator: TA98, Metabolic Activation: HAMSTER, LIVER, S-9, AROCLOR 1254 (10%), Method: PREINCUBATION",inactive; negative
same,mutagenic call,"Test System: AMES SALMONELLA TYPHIMURIUM, Strain/Indicator: TA98, Metabolic Activation: HAMSTER, LIVER, S-9, AROCLOR 1254 (30%), Method: PREINCUBATION",inactive; negative
same,mutagenic call,"Test System: AMES SALMONELLA TYPHIMURIUM, Strain/Indicator: TA98, Metabolic Activation: NONE, Method: PREINCUBATION",inactive; negative
same,mutagenic call,"Test System: AMES SALMONELLA TYPHIMURIUM, Strain/Indicator: TA98, Metabolic Activation: RAT, LIVER, S-9, AROCLOR 1254 (10%), Method: PREINCUBATION",inactive; negative
same,mutagenic call,"Test System: AMES SALMONELLA TYPHIMURIUM, Strain/Indicator: TA98, Metabolic Activation: RAT, LIVER, S-9, AROCLOR 1254 (30%), Method: PREINCUBATION",inactive; negative
same,mutagenic call,"Test System: AMES SALMONELLA TYPHIMURIUM, Strain/Indicator: TA100, Metabolic Activation: HAMSTER, LIVER, S-9, AROCLOR 1254 (10%), Method: PREINCUBATION",inactive; negative
same,mutagenic call,"Test System: AMES SALMONELLA TYPHIMURIUM, Strain/Indicator: TA100, Metabolic Activation: HAMSTER, LIVER, S-9, AROCLOR 1254 (30%), Method: PREINCUBATION",inactive; negative
same,mutagenic call,"Test System: AMES SALMONELLA TYPHIMURIUM, Strain/Indicator: TA100, Metabolic Activation: NONE, Method: PREINCUBATION",inactive; negative
same,mutagenic call,"Test System: AMES SALMONELLA TYPHIMURIUM, Strain/Indicator: TA100, Metabolic Activation: RAT, LIVER, S-9, AROCLOR 1254 (10%), Method: PREINCUBATION",inactive; negative
same,mutagenic call,"Test System: AMES SALMONELLA TYPHIMURIUM, Strain/Indicator: TA100, Metabolic Activation: RAT, LIVER, S-9, AROCLOR 1254 (30%), Method: PREINCUBATION",inactive; negative
same,mutagenic call,"Test System: AMES SALMONELLA TYPHIMURIUM, Strain/Indicator: TA1535, Metabolic Activation: HAMSTER, LIVER, S-9, AROCLOR 1254 (10%), Method: PREINCUBATION",inactive; negative
same,mutagenic call,"Test System: AMES SALMONELLA TYPHIMURIUM, Strain/Indicator: TA1535, Metabolic Activation: HAMSTER, LIVER, S-9, AROCLOR 1254 (30%), Method: PREINCUBATION",inactive; negative
same,mutagenic call,"Test System: AMES SALMONELLA TYPHIMURIUM, Strain/Indicator: TA1535, Metabolic Activation: NONE, Method: PREINCUBATION",inactive; negative
same,mutagenic call,"Test System: AMES SALMONELLA TYPHIMURIUM, Strain/Indicator: TA1535, Metabolic Activation: RAT, LIVER, S-9, AROCLOR 1254 (10%), Method: PREINCUBATION",inactive; negative
same,mutagenic call,"Test System: AMES SALMONELLA TYPHIMURIUM, Strain/Indicator: TA1535, Metabolic Activation: RAT, LIVER, S-9, AROCLOR 1254 (30%), Method: PREINCUBATION",inactive; negative
same,mutagenic call,"Test System: AMES SALMONELLA TYPHIMURIUM, Strain/Indicator: TA1537, Metabolic Activation: HAMSTER, LIVER, S-9, AROCLOR 1254 (30%), Method: PREINCUBATION",inactive; negative
same,mutagenic call,"Test System: AMES SALMONELLA TYPHIMURIUM, Strain/Indicator: TA1537, Metabolic Activation: NONE, Method: PREINCUBATION",inactive; negative
same,mutagenic call,"Test System: AMES SALMONELLA TYPHIMURIUM, Strain/Indicator: TA1537, Metabolic Activation: RAT, LIVER, S-9, AROCLOR 1254 (30%), Method: PREINCUBATION",inactive; negative
O=C1O[C@@H]2[C@@H](O)CO[C@]2(O)[C@@]1(O)Cc1c[nH]c2ccccc12,mutagenic call,[1],inactive; negative
same,mutagenic call,"Test System: AMES SALMONELLA TYPHIMURIUM, Strain/Indicator: TA98, Metabolic Activation: RAT, LIVER, S-9, PCB, Method: STANDARD PLATE",inactive; negative
same,mutagenic call,[2],inactive; negative
same,mutagenic call,"Test System: AMES SALMONELLA TYPHIMURIUM, Strain/Indicator: TA100, Metabolic Activation: RAT, LIVER, S-9, PCB, Method: STANDARD PLATE",inactive; negative
O=[N+]([O-])NC1=NCCN1Cc1ccc(Cl)nc1,mutagenic call,"End Point: In vitro micronucleus, Test System: Human lymphocytes, Metabolic Activation: None",inactive; negative
same,mutagenic call,"End Point: In vitro micronucleus, Test System: Human peripheral blood lymphocytes, Metabolic Activation: None",inactive; negative
same,mutagenic call,"End Point: In vitro micronucleus, Test System: Human peripheral blood lymphocytes, Metabolic Activation: Rat, Liver, S-9 (10%)",active; positive (at highest dose only)
same,mutagenic call,"End Point: In vivo chromosomal aberrations, Test System: Bone marrow polychromatic erythrocytes, Species: Rat, Strain/Sex: Wistar, Route: Oral",active; positive (structural changes)
same,mutagenic call,"End Point: In vivo micronucleus, Test System: Bone marrow polychromatic erythrocytes, Species: Rat, Strain/Sex: Wistar/Male, Route: Oral",active; positive (at high dose)
same,mutagenic call,"End Point: In vivo micronucleus, Test System: Bone marrow polychromatic erythrocytes, Species: Rat, Strain/Sex: Wistar, Route: Oral",active; positive
same,mutagenic call,"Test System: Ames Salmonella typhimurium, Strain/Indicator: TA98, Metabolic Activation: None, Method: Preincubation",active; positive
same,mutagenic call,"Test System: Ames Salmonella typhimurium, Strain/Indicator: TA98, Metabolic Activation: Rat, Liver, S-9 (10%), Aroclor 1254, Method: Preincubation",active; positive
same,mutagenic call,"Test System: Ames Salmonella typhimurium, Strain/Indicator: TA100, Metabolic Activation: None, Method: Preincubation",inactive; negative
same,mutagenic call,"Test System: Ames Salmonella typhimurium, Strain/Indicator: TA100, Metabolic Activation: Rat, Liver, S-9 (10%), Aroclor 1254, Method: Preincubation",inactive; negative
C[C@@H]1O[C@@H](OC[C@H]2O[C@@H](Oc3c(-c4ccc(O)c(O)c4)oc4cc(O)cc(O)c4c3=O)[C@H](O)[C@@H](O)[C@@H]2O)[C@H](O)[C@H](O)[C@H]1O,mutagenic call,"Test System: Ames Salmonella typhimurium, Strain/Indicator: TA98, Metabolic Activation: None, Method: Standard plate",inactive; negative
same,mutagenic call,"Test System: Ames Salmonella typhimurium, Strain/Indicator: TA98, Metabolic Activation: Rat, Liver, S-9, Aroclor 1254, Method: Standard Plate",inactive; negative
COC1=CC(=O)c2c(nc(C)c3c2[nH]c2ccncc23)C1=O,mutagenic call,"Test System: AMES SALMONELLA TYPHIMURIUM, Strain/Indicator: TA97A, Metabolic Activation: NONE, Method: STANDARD PLATE",active; positive
same,mutagenic call,"Test System: AMES SALMONELLA TYPHIMURIUM, Strain/Indicator: TA97A, Metabolic Activation: RAT LIVER S-9, AROCLOR 1254, Method: STANDARD PLATE",inactive; negative
same,mutagenic call,[1],active; positive
same,mutagenic call,"Test System: AMES SALMONELLA TYPHIMURIUM, Strain/Indicator: TA98, Metabolic Activation: RAT LIVER S-9, AROCLOR 1254, Method: STANDARD PLATE",active; positive
same,mutagenic call,[2],active; positive
same,mutagenic call,"Test System: AMES SALMONELLA TYPHIMURIUM, Strain/Indicator: TA100, Metabolic Activation: RAT LIVER S-9, AROCLOR 1254, Method: STANDARD PLATE",active; positive
same,mutagenic call,"Test System: AMES SALMONELLA TYPHIMURIUM, Strain/Indicator: TA102, Metabolic Activation: NONE, Method: STANDARD PLATE",active; positive
same,mutagenic call,"Test System: AMES SALMONELLA TYPHIMURIUM, Strain/Indicator: TA102, Metabolic Activation: RAT LIVER S-9, AROCLOR 1254, Method: STANDARD PLATE",active; positive
